Assay results from patent EP1844039B1, “5-SUBSTITUTED QUINOLINE AND ISOQUINOLINE DERIVATIVES, A METHOD FOR THE PRODUCTION THEREOF AND THEIR USE AS ANTIPHLOGISTICS” (priority 2004, dated 2006).

Key:
[1] = Skin atrophy induction, 18 days daily local treatment, skin fold thickness measurement; assay type: in vivo; details: rats
Source text: Eine weitere, besonders nach lokaler Therapie, auftretende unerwünschte Wirkung ist die Induktion einer Hautatrophie, die zu einem Verlust der Haut an Dicke, Elastizität und letztlich der mechanischen Belastbarkeit der Haut führt. Das Potential einer Substanz, Hautatrophie zu induzieren, kann in Ratten bestimmt werden. Die Tiere werden dafür 18 Tage täglich lokal in äquieffektiven Dosierungen mit den Testsubstanzen behandelt. Mittels einer Hautfaltendickenmessung läßt sich die Abnahme der Hautdicke über die Behandlungszeit verfolgen.
Im Vergleich zu Clobetasolpropionat, das bei einer Konzentration von 0.01 % (maximale anti-inflammatorische Wirkung wird erreicht) zu einer 65%igen Reduktion der Hautdicke führt, ist bei Beispiel 1 bei einer Konzentration von 0.1 % (maximale anti-inflammatorische Wirkung wird erreicht) nur eine 41 %ige Reduktion festzustellen.
Dieser Vorteil ist auch gegenüber den Substanzen aus der Anmeldung WO03/082827 zu sehen; beispielsweise induziert das Eutomer von Beispiel 36 bereits bei einer Konzentration von 0.06% (maximale anti-inflammatorische Wirkung) eine 60%ige Reduktion der Hautdicke.

[2] = tested on: Tyrosinaminotranferase (TAT); assay: Induction of tyrosine aminotransferase (TAT) in hepatoma cells, 24 h treatment, photometric; assay type: cell-based, Ratten; details: rat hepatoma cells; for Efficacy: Efficacy von Dexamethason = 100%
Source text: Immunologische Grundlagen, Pharmakologie und Therapierichtlinien, Wissenschafliche Verlagsgesellschaft mbH, Stuttgart, 1998]. Ursache hierfür ist die Stimulation der Gluconeogenese in der Leber durch Induktion der hierfür verantwortlichen Enzyme und durch freie Aminosäuren, die aus dem Abbau von Proteinen (katabole Wirkung der Glucocorticoide) entstehen. Ein Schlüsselenzym des katabolen Stoffwechsels in der Leber ist die Tyrosinaminotranferase (TAT). Die Aktivität dieses Enzyms kann photometrisch aus Zellkulturen von behandelten Ratten-Hepatomzellen bestimmt werden. Die Zellen werden für 24 Stunden mit den Testsubstanzen behandelt und anschließend die TAT-Aktivität gemessen.

IL-8 = assay: Inhibition of LPS-induced IL-8 secretion in THP-1 cells (ELISA of supernatant); assay type: cell-based, menschlichen; details: for Efficacy: Efficacy von Dexamethason = 100%; for IC50: Homo sapiens
Source text: Die erfindungsgemäßen Verbindungen der allgemeinen Formel (IIa) und (IIb) hemmen die durch Lipopolysaccharid (LPS) induzierte Sekretion des Zytokins IL-8 in der menschlichen Monozytenzelline THP-1.

Compound | EC50 [2] | IC50 (IL-8) | Reduktion der Hautdicke ([1]; concentration 0.1 % (maximal anti-inflammatory effect reached)) | Efficacy [2] | Efficacy (IL-8) | Reduktion der Hautdicke ([1]; concentration 0.01 % (maximal anti-inflammatory effect reached))
Cc1ccc2c(NCC(O)(CC(C)(C)c3cc(F)cc4c3OCC4)C(F)(F)F)cccc2n1 (racemic) [Beispiel 1, 5-[4-(5-Fluor-2,3-dihydrobenzofuran-7-yl)-2-hydroxy-4-methyl-2-trifluormethyl-pentylamino]-2-methylchinolin] | 3.7 nM | 5.9 nM | 41% | 93% | 74% | –
Cc1ccc2c(NCC(O)(CC(C)(C)c3cc(F)cc4c3OCC4)C(F)(F)F)ccc(F)c2n1 (racemic) [Beispiel 10, 8-Fluor-5-[4-(5-Fluor-2,3-dihydrobenzofuran-7-yl)-2-hydroxy-4-methyl-2-trifluormethyl-pentylamino]-2-methylchinolin] | 10 nM | 21 nM | – | 92% | 86% | –
CCC(=O)O[C@]1(C(=O)CCl)[C@@H](C)C[C@H]2[C@@H]3CCC4=CC(=O)C=C[C@]4(C)[C@@]3(F)[C@@H](O)C[C@@]21C [Clobetasolpropionat, reference compound] | – | – | – | – | – | 65%

Continued, in another order:

EC50 [2] | IC50 (IL-8) | Compound | Reduktion der Hautdicke ([1]; concentration 0.1 % (maximal anti-inflammatory effect reached)) | Efficacy [2] | Efficacy (IL-8) | Reduktion der Hautdicke ([1]; concentration 0.01 % (maximal anti-inflammatory effect reached))
4 nM | 8.5 nM | Cn1ccc2c(NCC(O)(CC(C)(C)c3cc(F)cc4c3OCC4)C(F)(F)F)cccc2c1=O (racemic) [Beispiel 11, 5-[4-(5-Fluor-2,3-dihydrobenzofuran-7-yl)-2-hydroxy-4-methyl-2-trifluormethylpentylamino]-2-methylisochinol-1(2H)-on] | – | 86% | 61% | –
2.6 nM | 13 nM | C[C@]12C=CC(=O)C=C1CC[C@@H]1[C@@H]2[C@@H](O)C[C@@]2(C)[C@H]1CC[C@]2(O)C(=O)CO [Prednisolon, reference compound] | – | 103% | 96% | –
